# Experimental data published in PubChem BioAssay (NCI).
#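 Grown in 96-well plates, cells were treated for 48 hours with each compound at five concentrations. Insufficient inhibition: endpoint recorded as highest concentration tested. At the GI50, growth is halved. TGI marks complete inhibition of growth.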 Where a SMILES comes first, the peptide text is derived from it.
# Legend:
# Test in all cases: DTP human tumour cell line panel, 48 h
# UACC-62 melanoma = test system: UACC-62 melanoma
# BT-549 breast = test system: BT-549 breast
# M14 melanoma = test system: M14 melanoma
# EKVX NSCLC = test system: EKVX NSCLC
# KM12 colon = test system: KM12 colon
# OVCAR-4 ovarian = test system: OVCAR-4 ovarian
# DU-145 prostate = test system: DU-145 prostate
# MALME-3M melanoma = test system: MALME-3M melanoma
# SK-MEL-5 melanoma = test system: SK-MEL-5 melanoma
# HCC-2998 colon = test system: HCC-2998 colon
Structure (SMILES),TGI (UACC-62 melanoma) [µM],TGI (BT-549 breast) [µM],TGI (M14 melanoma) [µM],TGI (EKVX NSCLC) [µM],TGI (KM12 colon) [µM],TGI (OVCAR-4 ovarian) [µM],TGI (DU-145 prostate) [µM],TGI (MALME-3M melanoma) [µM],TGI (SK-MEL-5 melanoma) [µM],TGI (HCC-2998 colon) [µM],GI50 (UACC-62 melanoma) [µM],GI50 (BT-549 breast) [µM],GI50 (M14 melanoma) [µM],GI50 (EKVX NSCLC) [µM],GI50 (KM12 colon) [µM],GI50 (HCC-2998 colon) [µM],GI50 (DU-145 prostate) [µM],GI50 (MALME-3M melanoma) [µM],GI50 (SK-MEL-5 melanoma) [µM]
COc1ccccc1N1C(=O)CSC1c1cccc(Oc2ccccc2)c1 (centres undefined),30.1,31.9,33.5,43.4,75.6,39.6,38.7,30.6,29.9,–,–,–,–,–,–,–,–,–,–
Cc1cc2c3c(nc2c2cc[nH]c(C)c12)CCCC3,3.32,–,3.63,8.44,7.13,6.45,11.1,2.74,2.89,3.43,–,–,–,–,–,–,–,–,–
O=C([O-])c1ccccc1Nc1ccccc1C(=O)[O-].[OH3+].[Zn+2],39.9,–,> 100,65.8,> 100,39.1,–,50.5,62.3,> 100,–,–,–,–,–,–,–,–,–
Cc1ccc2c(ccc3ncc(CNc4ccc(NS(C)(=O)=O)cc4)c32)[nH]1,34.2,> 100,33.1,> 100,36.6,58.9,42.6,34.5,39.4,–,–,–,–,–,–,–,–,–,–
Nc1nncc2n[nH]nc12,> 100,> 100,> 100,> 100,> 100,–,> 100,–,30.7,–,–,–,–,–,–,–,–,–,–
C1=C2C3=[N+](CCCC3)CC2Cc2sccc21 (centres undefined),> 100,> 100,> 100,> 100,> 100,> 100,> 100,> 100,> 100,–,–,–,–,–,–,–,–,–,–
COC(=O)c1ccc(NCC2=CC(=O)C=CC2=O)cc1O,30.4,25.1,50.6,31.6,–,30.3,29,28.6,80.1,–,–,–,–,–,–,–,–,–,–
Cc1cn(CC2(CO)CCC2)c(=O)[nH]c1=O,> 100,> 100,–,> 100,> 100,> 100,> 100,> 100,> 100,> 100,–,–,–,–,–,–,–,–,–
O=c1c2ccccc2ncn1COCc1ccccc1,> 100,–,> 100,> 100,> 100,> 100,> 100,–,> 100,> 100,–,–,–,–,–,–,–,–,–
Cc1ccc(C(=O)C2C=C(c3ccc(C)cc3)SC3C=CCC32)cc1 (centres undefined),38.8,37.3,36.4,97.6,30.3,75.7,> 100,34.1,29.2,–,–,–,–,–,–,–,–,–,–
COC(=O)CC(C(C(=O)OCc1ccccc1)C(C)O)N1C(=O)OCC1c1ccccc1 (centres undefined),> 100,–,> 100,> 100,–,> 100,–,> 100,> 100,> 100,–,–,–,–,–,–,–,–,–
O=CC1=CCCN(CCc2c[nH]c3ccccc23)C1,111,–,–,202,128,–,–,122,129,128,–,–,–,–,–,–,–,–,–
CCc1cc2c(cc1C(=O)CCC(=O)O)CC1(C2)Cc2cc(CC)c(C(=O)CCC(=O)O)cc2C1,–,–,> 100,> 100,> 100,> 100,> 100,> 100,> 100,> 100,–,–,–,–,–,–,–,–,–
CC1=C(C(=O)O)N2C(=O)[C@@H](NC(=O)C(c3ccccc3)N3CSC(=S)N(C(C)C)C3)C2SC1 (some centres undefined),> 100,–,> 100,> 100,> 100,> 100,–,> 100,> 100,–,–,–,–,–,–,–,–,–,–
CC1CN=C(N(C(=O)Nc2ccc(Cl)cc2)c2cccc(Cl)c2)S1 (centres undefined),–,–,> 100,> 100,> 100,> 100,> 100,> 100,33.7,84.6,–,–,–,–,–,–,–,–,–
CC(=O)NC(CS)C(=O)NC(CO)C(=O)NC(CO)C(=O)NC(Cc1c[nH]c2ccccc12)C(=O)N1CCCC1C(=O)NC(CO)C(=O)NC(Cc1c[nH]c2ccccc12)C(=O)NC(Cc1c[nH]cn1)C(=O)NC(CO)C(=O)NC(Cc1c[nH]c2ccccc12)C(=O)NCC(=O)NCC(=O)NC(C)C(=O)NC(CCC(N)=O)C(=O)NC(CCCCN)C(=O)NC(C)C(=O)NC(CCCNC(=N)N)C(=O)NC(CCCCN)C(N)=O (centres undefined) (Ac-CSSWPSWHSWGGAQKARK-NH2; configuration not given here),24,41,> 50,> 50,32.1,> 50,> 50,20.3,22.4,–,–,–,–,–,–,–,–,–,–
CCCNC(=O)Cn1c2c(c3ccccc31)CCCC2,> 100,> 100,> 100,> 100,–,> 100,–,> 100,> 100,> 100,–,–,–,–,–,–,–,–,–
N#CC12CC(C=O)=C(N)C1(C#N)CC(C=O)=C2N (centres undefined),> 100,–,> 100,> 100,> 100,–,> 100,> 100,54.1,80,–,–,–,–,–,–,–,–,–
Cc1cc(C)n(CN(CCCCO)Cn2nc(C)cc2C)n1,36.9,71.2,33.9,76.3,60.6,61.9,53.6,57.3,> 100,–,–,–,–,–,–,–,–,–,–
O=P(O)(O)c1ccc2c(c1)OCCOCCOCCOCCO2,> 100,> 100,–,> 100,> 100,–,> 100,> 100,> 100,> 100,–,–,–,–,–,–,–,–,–
COc1c(C)c(C/C=C(\C)CC/C=C(\C)CC/C=C(\C)CC/C=C(\C)CCC=C(C)C)c(OC)c(OC)c1OC,> 100,> 100,> 100,> 100,29.1,52.3,> 100,–,38.1,–,–,–,–,–,–,–,–,–,–
Cc1cn(C(CO)OC(CO)CN(O)C2C3CC4CC(C3)CC2C4)c(=O)[nH]c1=O (centres undefined),> 100,> 100,> 100,> 100,> 100,> 100,> 100,–,> 100,> 100,–,–,–,–,–,–,–,–,–
C[C@@H](c1ccccc1)N1C[C@@H](c2ccc3c(c2)OCO3)[C@@H]2C(=O)CCC[C@@H]21,52,–,36.9,> 100,> 100,> 100,> 100,87.5,> 100,76.7,–,–,–,–,–,–,–,–,–

Structure (SMILES),TGI (UACC-62 melanoma) [µM],TGI (BT-549 breast) [µM],TGI (M14 melanoma) [µM],TGI (EKVX NSCLC) [µM],TGI (KM12 colon) [µM],TGI (OVCAR-4 ovarian) [µM],TGI (DU-145 prostate) [µM],TGI (MALME-3M melanoma) [µM],TGI (SK-MEL-5 melanoma) [µM],TGI (HCC-2998 colon) [µM],GI50 (UACC-62 melanoma) [µM],GI50 (BT-549 breast) [µM],GI50 (M14 melanoma) [µM],GI50 (EKVX NSCLC) [µM],GI50 (KM12 colon) [µM],GI50 (HCC-2998 colon) [µM],GI50 (DU-145 prostate) [µM],GI50 (MALME-3M melanoma) [µM],GI50 (SK-MEL-5 melanoma) [µM]
CC1(C)CC[C@]2(C)[C@@H](O)C[C@]3(C)C(=CC[C@@H]4[C@@]5(C)CC[C@H](O)C(C)(C)[C@@H]5CC[C@]43C)[C@@H]2C1,> 100,> 100,> 100,> 100,> 100,> 100,> 100,86.9,> 100,–,–,–,–,–,–,–,–,–,–
COC(=O)Cc1cccc2c(=O)c(S(=O)(=O)NC(=O)Nc3ccc(Cl)cc3)c(-c3ccccc3)oc12,> 100,> 100,> 100,> 100,> 100,> 100,> 100,–,> 100,> 100,–,–,–,–,–,–,–,–,–
Cc1cn(CCCCOC(=O)NC(CCCN=C(N)N)C(=O)O)c(=O)[nH]c1=O (centres undefined),> 100,> 100,> 100,> 100,> 100,> 100,> 100,–,–,> 100,–,–,–,–,–,–,–,–,–
C/C1=C\[C@@H](C)C[C@@H](C)OC(=O)[C@@H](C)NC(=O)[C@H](Cc2ccc(O)c(Br)c2)N(C)C(=O)CNC(=O)[C@H](C)C1,> 55.1,2.16,> 100,–,> 100,–,> 100,9.83,> 52.8,70.1,–,–,–,–,–,–,–,–,–
COc1cc(/C=C2\N=C(c3ccccc3)N(c3nc4ccccc4s3)C2=O)cc(OC)c1OC,–,59.4,> 100,> 100,> 100,68,> 100,–,> 100,> 100,–,–,–,–,–,–,–,–,–
COC1CC(O[C@H]2CC[C@@]3(C)C(=CCC4(O)C3CCC35C(=O)OC6(C)O[C@@]43CCC65)C2)OC(C)C1O (some centres undefined),> 100,–,> 100,> 100,> 100,> 100,–,> 100,> 100,> 100,–,–,–,–,–,–,–,–,–
OC(c1cc2ccccc2[nH]1)C(O)(c1cc2ccccc2[nH]1)c1cc2ccccc2[nH]1 (centres undefined),23.2,–,–,60.9,> 245,–,–,59.7,39.8,44.3,–,–,–,–,–,–,–,–,–
CS(=O)(=O)c1ccc(C(=O)O[C@@H]2C(=O)N3CC[C@H]4OC(O)[C@@H]2[C@H]43)cc1 (some centres undefined),> 100,> 100,> 100,> 100,> 100,> 100,> 100,–,> 100,> 100,–,–,–,–,–,–,–,–,–
CCOC(=O)c1ccc(Nc2nc3ccccc3n3cccc23)cc1,> 100,> 100,> 100,> 100,> 100,–,> 100,> 100,> 100,> 100,–,–,–,–,–,–,–,–,–
N=C1c2ccccc2C(=O)c2c(NCCNCCO)ccc(O)c21,18.9,–,24.8,46.9,33.1,83.3,–,35.8,19.3,21.4,–,–,–,–,–,–,–,–,–
CC(=O)OC(OC(C)=O)c1c2ccccc2cc2ccccc12,41.7,32.9,44.8,50.4,33.4,–,> 100,–,25.8,40.5,–,–,–,–,–,–,–,–,–
CC(=O)/C(=C/N1CC(=O)NC1=S)C(=O)Nc1ccccc1C,–,> 100,> 100,> 100,> 100,> 100,> 100,–,> 100,> 100,–,–,–,–,–,–,–,–,–
O=C(CSc1nc2ccc(I)cc2c(=O)n1Cc1ccccc1)NNC(=S)Nc1ccccc1,> 100,> 100,> 100,6.14,> 100,> 100,> 100,–,> 100,> 100,–,–,–,–,–,–,–,–,–
CCOP(=O)(OCC)/C(=C\n1ccc(=O)[nH]c1=S)C(=O)OC,> 100,–,> 100,> 100,> 100,> 100,> 100,> 100,> 100,> 100,–,–,–,–,–,–,–,–,–
CCOC(=O)C(=CNc1ccc(S(N)(=O)=O)cc1)C(=O)OCC,–,–,> 100,> 100,–,> 100,> 100,> 100,> 100,> 100,–,–,–,–,–,–,–,–,–
Cc1cc(OP2(=O)NCc3ccncc3O2)ccc1Cl (centres undefined),> 100,> 100,> 100,> 100,> 100,> 100,> 100,–,> 100,> 100,–,–,–,–,–,–,–,–,–
COc1c(O)cc2c(c1O)C(=O)C(Cc1ccc(O)cc1)CO2 (centres undefined),> 100,> 100,> 100,> 100,> 100,> 100,> 100,> 100,> 100,–,–,–,–,–,–,–,–,–,–
CC(C)(Oc1ccc2c(=O)cc(-c3ccc(Cl)cc3)oc2c1)C(=O)Nc1c(Cl)cccc1Cl,> 100,–,> 100,> 100,> 100,–,–,> 100,> 100,–,–,–,–,–,–,–,–,–,–
CC1=C(O)C(=O)C2C(=O)C1C(C)C2c1ccccc1 (centres undefined),> 100,–,> 100,> 100,> 100,> 100,–,> 100,> 100,> 100,–,–,–,–,–,–,–,–,–
COc1ccc(C/C=C(\C)CCO)cc1,> 100,> 100,> 100,> 100,> 100,> 100,> 100,–,> 100,–,–,–,–,–,–,–,–,–,–
O=C(N/N=C\c1ccc(N(CCCl)CCCl)cc1)c1cccnc1,> 100,> 100,> 100,> 100,> 100,–,> 100,> 100,> 100,> 100,9.1,19.7,60.2,> 100,61.9,55.5,11.4,55,36.3
CC(C)CC(C#CCCOC(=O)c1ccccc1)OC(=O)c1ccccc1 (centres undefined),> 10,> 10,> 10,> 10,> 10,–,> 10,> 10,> 10,> 10,–,–,–,–,–,–,–,–,–
